Experimental data as given in patent US9765091B2, “Tetrahydropyrazolo [3,4-b] azepine derivatives and their use as allosteric modulators of metabotropic glutamate receptors” (Addex Pharma S.A., priority 2010, dated 2017).
pEC50: −log10 of the molar value.

Experiments:
[1] = molecular target: T1, human mGluR4 (Homo sapiens, UniProt Q14833); test: Fluorescent cell based Ca2+ mobilization assay (FLIPR) on HEK-293 cells expressing human mGluR4; conditions: positive allosteric modulation, HEK-293 cells expressing hmGluR4, stimulated by EC25 glutamate; mean of at least three independent experiments in duplicate; read-out: Ca^2+ Flux* (mean EC50)
T1 construct: expressed in transfected cells
T1 sequence (Q14833 33-912): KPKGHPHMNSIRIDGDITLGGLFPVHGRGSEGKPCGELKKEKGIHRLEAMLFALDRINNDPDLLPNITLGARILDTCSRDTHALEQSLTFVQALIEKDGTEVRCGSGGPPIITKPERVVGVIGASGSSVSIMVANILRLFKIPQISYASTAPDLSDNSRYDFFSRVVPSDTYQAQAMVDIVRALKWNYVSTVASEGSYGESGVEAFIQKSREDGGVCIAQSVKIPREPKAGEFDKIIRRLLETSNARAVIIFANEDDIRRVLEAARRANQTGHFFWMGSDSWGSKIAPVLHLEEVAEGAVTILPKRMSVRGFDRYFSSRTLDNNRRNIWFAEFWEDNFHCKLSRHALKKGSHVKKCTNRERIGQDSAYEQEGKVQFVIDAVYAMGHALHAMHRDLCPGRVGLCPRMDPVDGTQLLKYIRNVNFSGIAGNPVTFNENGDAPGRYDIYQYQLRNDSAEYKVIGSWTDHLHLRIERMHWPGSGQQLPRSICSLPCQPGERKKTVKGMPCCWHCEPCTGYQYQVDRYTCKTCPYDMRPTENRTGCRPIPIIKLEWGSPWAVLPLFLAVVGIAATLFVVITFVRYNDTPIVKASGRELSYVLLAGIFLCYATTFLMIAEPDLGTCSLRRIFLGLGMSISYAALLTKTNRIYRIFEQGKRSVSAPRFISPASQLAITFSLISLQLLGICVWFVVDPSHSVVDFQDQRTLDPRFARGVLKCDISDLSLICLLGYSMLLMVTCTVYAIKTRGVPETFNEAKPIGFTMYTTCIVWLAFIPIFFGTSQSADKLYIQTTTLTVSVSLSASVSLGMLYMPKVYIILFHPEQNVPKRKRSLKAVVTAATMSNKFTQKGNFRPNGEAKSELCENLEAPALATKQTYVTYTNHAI
Excerpt: mGluR4 Assay on HEK-Expressing Human mGluR4
The compounds of the present invention are positive allosteric modulators of mGluR4 receptor. Their activity was examined on recombinant human mGluR4a receptors by detecting changes in intracellular Ca^2+ concentration, using the fluorescent Ca^2+-sensitive dye Fluo4-(AM) and a Fluorometric Imaging Plate Reader (FLIPR, Molecular Devices, Sunnyvale, Calif.).
The cDNA encoding the human metabotropic glutamate receptor (hmGluR4), (accession number NM_000841.1, NCBI Nucleotide database browser), was subcloned into an expression vector containing also the hygromycin resistance gene. In parallel, the cDNA encoding a G protein allowing redirection of the activation signal to intracellular calcium flux was subcloned into a different expression vector containing also the puromycin resistance gene. Transfection of both these vectors into HEK293 cells with PolyFect reagent (Qiagen) according to supplier's protocol, and hygromycin and puromycin treatment allowed selection of antibiotic resistant cells which had integrated stably one or more copies of the plasmids. Positive cellular clones expressing hmGluR4 were identified in a functional assay measuring changes in calcium fluxes in response to glutamate or selective known mGluR4 orthosteric agonists and antagonists. HEK-293 cells expressing hmGluR4 were maintained in media containing DMEM, dialyzed Fetal Calf Serum (10%), Glutamax™ (2 mM), Penicillin (100 units/mL), Streptomycin (100 μg/mL), Geneticin (100 μg/mL) and Hygromycin-B (40 μg/mL) and puromycin (1 μg/mL) at 37° C./5% CO2.
Human mGluR4 HEK-293 cells were plated out 24 hours prior to FLIPR^384 assay in black-walled, clear-bottomed, poly-L-ornithine-coated 384-well plates at a density of 25,000 cells/well in a glutamine/glutamate free DMEM medium containing foetal bovine serum (10%), penicillin (100 units/mL) and streptomycin (100 μg/mL) at 37° C./5% CO2.
On the day of the assay, the medium was aspirated and the cells were loaded with a 3 μM solution of Fluo4-AM (LuBioScience, Lucerne, Switzerland) in 0.03% pluronic acid. After 1 hour at 37° C./5% CO2, the non incorporated dye was removed by washing cell plate with the assay buffer and the cells were left in the dark at room temperature for […] before testing. All assays were performed in a pH 7.4 buffered-solution containing 20 mM HEPES, 143 mM NaCl, 6 mM KCl, 1 mM MgSO4, 1 mM CaCl2, 0.125 mM sulfapyrazone and 0.1% glucose.
After 10 s of basal fluorescence recording, various concentrations of the compounds of the invention were added to the cells. Changes in fluorescence levels were first monitored for 180 s in order to detect any agonist activity of the compounds. Then the cells were stimulated by an EC25 glutamate concentration for an additional 110 s in order to measure enhancing activities of the compounds of the invention. EC25 glutamate concentration is the concentration giving 25% of the maximal glutamate response.
The concentration-response curves of representative compounds of the present invention were generated using the Prism GraphPad software (Graph Pad Inc, San Diego, USA). The curves were fitted to a four-parameter logistic equation: (Y=Bottom+(Top−Bottom)/(1+10^((Log EC50−X)*Hill Slope) allowing the determination of EC50 values.
The Table 4 below represents the mean EC50 obtained from at least three independent experiments of selected molecules performed in duplicate.

SMILES: Cc1ccnc(Nc2nc3c(s2)CCN(C)c2n[nH]cc2-3)n1 [Compound 1-1, 6-Methyl-N-(4-methylpyrimidin-2-yl)-4,5,6,8-tetrahydropyrazolo[3,4-b]thiazolo[4,5-d]azepin-2-amine]
- melting point: 292 °C
- pEC50 [1]: > 7.00

SMILES: Cc1ccnc(Nc2nc3c(s2)CCN(C(C)C)c2n[nH]cc2-3)n1 [Compound 1-5, 6-Isopropyl-N-(4-methylpyrimidin-2-yl)-4,5,6,8-tetrahydropyrazolo[3,4-b]thiazolo[4,5-d]azepin-2-amine]
- melting point: 247 °C
- pEC50 [1]: > 7.00

SMILES: Cc1nc(Nc2nc3c(s2)CCN(C)c2n[nH]cc2-3)ns1 [Compound 1-8, 6-Methyl-N-(5-methyl-1,2,4-thiadiazol-3-yl)-4,5,6,8-tetrahydropyrazolo[3,4-b]thiazolo[4,5-d]azepin-2-amine]
- melting point: 291 °C
- pEC50 [1]: > 7.00

SMILES: COCC(C)N1CCc2sc(Nc3nccc(C)n3)nc2-c2c[nH]nc21 (stereo not drawn) [Compound 1-11, 6-(1-Methoxypropan-2-yl)-N-(4-methylpyrimidin-2-yl)-4,5,6,8-tetrahydropyrazolo[3,4-b]thiazolo[4,5-d]azepin-2-amine]
- melting point: 233 °C
- pEC50 [1]: > 7.00

SMILES: COCCN1CCc2sc(Nc3cccc(F)n3)nc2-c2c[nH]nc21 [Compound 1-14, N-(6-Fluoropyridin-2-yl)-6-(2-methoxyethyl)-4,5,6,8-tetrahydropyrazolo[3,4-b]thiazolo[4,5-d]azepin-2-amine]
- melting point: 203 °C
- pEC50 [1]: > 7.00

SMILES: COCCN1CCc2sc(Nc3ccc(F)cn3)nc2-c2c[nH]nc21 [Compound 1-15, N-(5-Fluoropyridin-2-yl)-6-(2-methoxyethyl)-4,5,6,8-tetrahydropyrazolo[3,4-b]thiazolo[4,5-d]azepin-2-amine]
- melting point: 218 °C
- pEC50 [1]: 6.00 to 7.00

SMILES: Cc1noc(C)c1CN1CCc2sc(Nc3ncc(F)cn3)nc2-c2c[nH]nc21 [Compound 1-23, 6-((3,5-Dimethylisoxazol-4-yl)methyl)-N-(5-fluoropyrimidin-2-yl)-4,5,6,8-tetrahydropyrazolo[3,4-b]thiazolo[4,5-d]azepin-2-amine]
- melting point: 275 °C
- pEC50 [1]: > 7.00

SMILES: CC(C)c1nc(CN2CCc3sc(Nc4ncc(F)cn4)nc3-c3c[nH]nc32)co1 [Compound 1-24, N-(5-Fluoropyrimidin-2-yl)-6-((2-isopropyloxazol-4-yl)methyl)-4,5,6,8-tetrahydropyrazolo[3,4-b]thiazolo[4,5-d]azepin-2-amine]
- melting point: 271 °C
- pEC50 [1]: > 7.00

SMILES: Fc1cnc(Nc2nc3c(s2)CCNc2n[nH]cc2-3)nc1 [Compound 1-25, N-(5-Fluoropyrimidin-2-yl)-4,5,6,8-tetrahydropyrazolo[3,4-b]thiazolo[4,5-d]azepin-2-amine]
- melting point: 312 °C
- pEC50 [1]: > 7.00

SMILES: CCN1CCc2sc(Nc3ncc(F)cn3)nc2-c2c[nH]nc21 [Compound 1-34, 6-Ethyl-N-(5-fluoropyrimidin-2-yl)-4,5,6,8-tetrahydropyrazolo[3,4-b]thiazolo[4,5-d]azepin-2-amine]
- melting point: 306 °C
- pEC50 [1]: > 7.00

SMILES: Cc1cc(CN2CCc3sc(Nc4ncc(F)cn4)nc3-c3c[nH]nc32)on1 [Compound 1-35, N-(5-Fluoropyrimidin-2-yl)-6-((3-methylisoxazol-5-yl)methyl)-4,5,6,8-tetrahydropyrazolo[3,4-b]thiazolo[4,5-d]azepin-2-amine]
- melting point: 280 °C
- pEC50 [1]: > 7.00

SMILES: Cc1cccc(Nc2nc3c(s2)CCN(CC2CC2)c2n[nH]cc2-3)n1 [Compound 1-39, 6-(Cyclopropylmethyl)-N-(6-methylpyridin-2-yl)-4,5,6,8-tetrahydropyrazolo[3,4-b]thiazolo[4,5-d]azepin-2-amine]
- melting point: 285 °C
- pEC50 [1]: 6.00 to 7.00

SMILES: Fc1cccc(Nc2nc3c(s2)CCN(CC2CC2)c2n[nH]cc2-3)n1 [Compound 1-40, 6-(Cyclopropylmethyl)-N-(6-fluoropyridin-2-yl)-4,5,6,8-tetrahydropyrazolo[3,4-b]thiazolo[4,5-d]azepin-2-amine]
- melting point: 297 °C
- pEC50 [1]: 6.00 to 7.00

SMILES: Cc1cccc(CN2CCc3sc(Nc4ncc(F)cn4)nc3-c3cn[nH]c32)n1 [Compound 1-70, N-(5-Fluoropyrimidin-2-yl)-6-((6-methylpyridin-2-yl)methyl)-4,5,6,7-tetrahydropyrazolo[3,4-b]thiazolo[4,5-d]azepin-2-amine]
- pEC50 [1]: 6.00 to 7.00

SMILES: Fc1cnc(Nc2nc3c(s2)CCN(CCc2ccccn2)c2[nH]ncc2-3)nc1 [Compound 1-71, N-(5-Fluoropyrimidin-2-yl)-6-(2-(pyridin-2-yl)ethyl)-4,5,6,7-tetrahydropyrazolo[3,4-b]thiazolo[4,5-d]azepin-2-amine]
- pEC50 [1]: 5.00 to 6.00

SMILES: COc1ccc(CN2CCc3sc(Nc4ncc(F)cn4)nc3-c3cn[nH]c32)nc1 [Compound 1-77, N-(5-Fluoropyrimidin-2-yl)-6-((5-methoxypyridin-2-yl)methyl)-4,5,6,7-tetrahydropyrazolo[3,4-b]thiazolo[4,5-d]azepin-2-amine]
- pEC50 [1]: > 7.00

SMILES: Fc1cnc(Nc2nc3c(s2)CCN(CC2CCNCC2)c2[nH]ncc2-3)nc1 [Compound 1-78, N-(5-Fluoropyrimidin-2-yl)-6-(piperidin-4-ylmethyl)-4,5,6,7-tetrahydropyrazolo[3,4-b]thiazolo[4,5-d]azepin-2-amine]
- pEC50 [1]: 5.00 to 6.00

SMILES: Fc1cnc(Nc2nc3c(s2)CCN(Cc2ncc(Cl)s2)c2[nH]ncc2-3)nc1 [Compound 1-79, 6-((5-Chlorothiazol-2-yl)methyl)-N-(5-fluoropyrimidin-2-yl)-4,5,6,7-tetrahydropyrazolo[3,4-b]thiazolo[4,5-d]azepin-2-amine]
- pEC50 [1]: 6.00 to 7.00

SMILES: Cn1cnc(CN2CCc3sc(Nc4ncc(F)cn4)nc3-c3cn[nH]c32)c1 [Compound 1-80, N-(5-Fluoropyrimidin-2-yl)-6-((1-methyl-1H-imidazol-4-yl)methyl)-4,5,6,7-tetrahydropyrazolo[3,4-b]thiazolo[4,5-d]azepin-2-amine]
- pEC50 [1]: 6.00 to 7.00

SMILES: CC(c1ccc(Cl)cn1)N1CCc2sc(Nc3ncc(F)cn3)nc2-c2cn[nH]c21 (stereo not drawn) [Compound 1-81, 6-(1-(5-Chloropyridin-2-yl)ethyl)-N-(5-fluoropyrimidin-2-yl)-4,5,6,7-tetrahydropyrazolo[3,4-b]thiazolo[4,5-d]azepin-2-amine]
- pEC50 [1]: > 7.00

SMILES: Fc1cnc(Nc2nc3c(s2)CCN(C2CCC2)c2[nH]ncc2-3)nc1 [Compound 1-82, 6-Cyclobutyl-N-(5-fluoropyrimidin-2-yl)-4,5,6,7-tetrahydropyrazolo[3,4-b]thiazolo[4,5-d]azepin-2-amine]
- pEC50 [1]: 5.00 to 6.00

SMILES: COCCN1CCc2sc(Nc3cccc(CF)n3)nc2-c2cn[nH]c21 [Compound 1-83, N-(6-(Fluoromethyl)pyridin-2-yl)-6-(2-methoxyethyl)-4,5,6,7-tetrahydropyrazolo[3,4-b]thiazolo[4,5-d]azepin-2-amine]
- pEC50 [1]: 6.00 to 7.00

SMILES: COCCN1CC(C)c2sc(Nc3ncc(F)cn3)nc2-c2cn[nH]c21 (stereo not drawn) [Compound 1-84, N-(5-Fluoropyrimidin-2-yl)-6-(2-methoxyethyl)-4-methyl-4,5,6,7-tetrahydropyrazolo[3,4-b]thiazolo[4,5-d]azepin-2-amine]
- pEC50 [1]: 6.00 to 7.00
